# In ChEMBL document CHEMBL1909046, “DrugMatrix in vitro pharmacology data”:
# Legend:
# [1] = target: T1, C-C chemokine receptor type 4 (Homo sapiens, UniProt P51679); type: cell membranes, Membrane; details: chem-1; note: in other assays of this panel Not Active means under 50% inhibition at 10 µM
# T1 sequence (P51679 whole entry): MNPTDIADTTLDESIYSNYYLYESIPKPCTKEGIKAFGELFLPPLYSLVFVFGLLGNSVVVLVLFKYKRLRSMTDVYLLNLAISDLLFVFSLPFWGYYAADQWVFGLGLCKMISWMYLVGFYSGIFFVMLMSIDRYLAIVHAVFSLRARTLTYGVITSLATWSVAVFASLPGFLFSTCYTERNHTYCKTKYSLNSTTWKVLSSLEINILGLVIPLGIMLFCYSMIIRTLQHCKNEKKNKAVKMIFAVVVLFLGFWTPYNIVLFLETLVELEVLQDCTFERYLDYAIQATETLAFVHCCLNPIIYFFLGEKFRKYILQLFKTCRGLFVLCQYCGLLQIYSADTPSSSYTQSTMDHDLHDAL
# [2] = target: Matrix metalloproteinase-9 (Homo sapiens, UniProt P14780); test: biochemical; type: cell-based;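 note: inhibition of isolated MMP-9 enzyme activity toward a synthetic peptide substrate, from the DrugMatrix protease screening panel; in other assays of this panel Not Active means under 50% inhibition at 10 µM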
# Sequence of Matrix metalloproteinase-9 (P14780 whole entry): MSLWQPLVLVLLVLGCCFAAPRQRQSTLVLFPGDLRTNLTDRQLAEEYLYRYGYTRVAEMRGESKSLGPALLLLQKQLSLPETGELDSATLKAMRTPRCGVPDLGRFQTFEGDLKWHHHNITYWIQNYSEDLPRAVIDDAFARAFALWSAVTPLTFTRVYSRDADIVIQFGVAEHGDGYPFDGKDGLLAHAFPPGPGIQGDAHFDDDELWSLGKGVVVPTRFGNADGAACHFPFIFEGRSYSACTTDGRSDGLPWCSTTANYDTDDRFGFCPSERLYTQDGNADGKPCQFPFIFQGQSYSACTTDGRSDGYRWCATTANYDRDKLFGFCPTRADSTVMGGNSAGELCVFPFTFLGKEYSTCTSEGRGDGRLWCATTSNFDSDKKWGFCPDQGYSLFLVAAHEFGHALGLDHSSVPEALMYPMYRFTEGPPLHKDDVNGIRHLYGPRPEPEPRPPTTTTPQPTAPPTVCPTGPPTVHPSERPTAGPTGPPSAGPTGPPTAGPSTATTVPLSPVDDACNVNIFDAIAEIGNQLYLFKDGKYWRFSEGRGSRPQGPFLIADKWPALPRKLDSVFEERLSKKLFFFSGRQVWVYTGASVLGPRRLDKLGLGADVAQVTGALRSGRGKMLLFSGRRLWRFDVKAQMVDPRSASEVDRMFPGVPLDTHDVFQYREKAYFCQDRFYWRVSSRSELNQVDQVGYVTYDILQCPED
# [3] = DRUGMATRIX: Calcium Channel Type L, Benzothiazepine radioligand binding (ligand: [3H] Diltiazem); type: cell membranes, Rattus norvegicus, Wistar, Brain, Membrane; details: Not Active = under 50% inhibition at 10 µM
# Neutrophil elastase = target: T2, Neutrophil elastase (Homo sapiens, UniProt P08246); type: tissue-based;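 note: inhibition of neutrophil elastase enzyme activity, measured with a p-nitroanilide-linked peptide substrate; in other assays of this panel Not Active means under 50% inhibition at 10 µM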
# T2 sequence (P08246 whole entry): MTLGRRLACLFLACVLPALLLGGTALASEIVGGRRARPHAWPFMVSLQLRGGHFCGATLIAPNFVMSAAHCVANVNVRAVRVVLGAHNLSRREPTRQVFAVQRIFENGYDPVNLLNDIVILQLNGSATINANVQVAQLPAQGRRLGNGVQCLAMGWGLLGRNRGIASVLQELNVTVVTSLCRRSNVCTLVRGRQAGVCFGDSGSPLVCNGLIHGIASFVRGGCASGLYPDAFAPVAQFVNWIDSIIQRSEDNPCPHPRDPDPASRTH
# [4] = target: T3, Neuropeptide Y receptor type 2 (Homo sapiens, UniProt P49146); type: cell membranes, Membrane; details: kan-ts; note: in other assays of this panel Not Active means under 50% inhibition at 10 µM
# T3 sequence (P49146 whole entry): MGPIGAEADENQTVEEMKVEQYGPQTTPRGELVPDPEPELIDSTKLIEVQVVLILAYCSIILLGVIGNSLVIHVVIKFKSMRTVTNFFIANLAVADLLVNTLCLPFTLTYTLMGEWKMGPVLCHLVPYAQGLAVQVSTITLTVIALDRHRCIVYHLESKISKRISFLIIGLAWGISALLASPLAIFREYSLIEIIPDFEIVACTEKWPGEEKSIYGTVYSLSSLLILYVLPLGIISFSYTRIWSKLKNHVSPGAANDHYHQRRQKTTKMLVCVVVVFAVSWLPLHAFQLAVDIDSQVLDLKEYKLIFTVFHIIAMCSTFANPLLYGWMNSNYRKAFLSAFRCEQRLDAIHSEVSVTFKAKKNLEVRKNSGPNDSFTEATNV
# [5] = target: 5-hydroxytryptamine receptor 6 (Homo sapiens, UniProt P50406); type: cell membranes, HeLa, Membrane; details: hela; note: in other assays of this panel Not Active means under 50% inhibition at 10 µM
# Sequence of 5-hydroxytryptamine receptor 6 (P50406 whole entry): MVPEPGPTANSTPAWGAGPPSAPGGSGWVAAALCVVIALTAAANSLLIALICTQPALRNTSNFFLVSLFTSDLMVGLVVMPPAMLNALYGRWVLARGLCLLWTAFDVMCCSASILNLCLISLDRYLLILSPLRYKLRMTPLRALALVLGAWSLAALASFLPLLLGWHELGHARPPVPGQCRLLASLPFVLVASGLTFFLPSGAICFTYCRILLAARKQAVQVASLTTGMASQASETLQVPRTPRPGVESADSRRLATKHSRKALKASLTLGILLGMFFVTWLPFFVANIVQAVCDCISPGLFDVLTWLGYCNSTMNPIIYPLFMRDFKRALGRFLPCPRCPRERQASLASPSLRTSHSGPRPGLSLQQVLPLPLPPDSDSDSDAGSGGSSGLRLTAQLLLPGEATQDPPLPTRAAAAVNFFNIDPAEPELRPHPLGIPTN
# [6] = target: T4, Nitric oxide synthase, inducible (Mus musculus, UniProt P29477); parameters: species or system Escherichia coli
# T4 sequence (P29477 whole entry): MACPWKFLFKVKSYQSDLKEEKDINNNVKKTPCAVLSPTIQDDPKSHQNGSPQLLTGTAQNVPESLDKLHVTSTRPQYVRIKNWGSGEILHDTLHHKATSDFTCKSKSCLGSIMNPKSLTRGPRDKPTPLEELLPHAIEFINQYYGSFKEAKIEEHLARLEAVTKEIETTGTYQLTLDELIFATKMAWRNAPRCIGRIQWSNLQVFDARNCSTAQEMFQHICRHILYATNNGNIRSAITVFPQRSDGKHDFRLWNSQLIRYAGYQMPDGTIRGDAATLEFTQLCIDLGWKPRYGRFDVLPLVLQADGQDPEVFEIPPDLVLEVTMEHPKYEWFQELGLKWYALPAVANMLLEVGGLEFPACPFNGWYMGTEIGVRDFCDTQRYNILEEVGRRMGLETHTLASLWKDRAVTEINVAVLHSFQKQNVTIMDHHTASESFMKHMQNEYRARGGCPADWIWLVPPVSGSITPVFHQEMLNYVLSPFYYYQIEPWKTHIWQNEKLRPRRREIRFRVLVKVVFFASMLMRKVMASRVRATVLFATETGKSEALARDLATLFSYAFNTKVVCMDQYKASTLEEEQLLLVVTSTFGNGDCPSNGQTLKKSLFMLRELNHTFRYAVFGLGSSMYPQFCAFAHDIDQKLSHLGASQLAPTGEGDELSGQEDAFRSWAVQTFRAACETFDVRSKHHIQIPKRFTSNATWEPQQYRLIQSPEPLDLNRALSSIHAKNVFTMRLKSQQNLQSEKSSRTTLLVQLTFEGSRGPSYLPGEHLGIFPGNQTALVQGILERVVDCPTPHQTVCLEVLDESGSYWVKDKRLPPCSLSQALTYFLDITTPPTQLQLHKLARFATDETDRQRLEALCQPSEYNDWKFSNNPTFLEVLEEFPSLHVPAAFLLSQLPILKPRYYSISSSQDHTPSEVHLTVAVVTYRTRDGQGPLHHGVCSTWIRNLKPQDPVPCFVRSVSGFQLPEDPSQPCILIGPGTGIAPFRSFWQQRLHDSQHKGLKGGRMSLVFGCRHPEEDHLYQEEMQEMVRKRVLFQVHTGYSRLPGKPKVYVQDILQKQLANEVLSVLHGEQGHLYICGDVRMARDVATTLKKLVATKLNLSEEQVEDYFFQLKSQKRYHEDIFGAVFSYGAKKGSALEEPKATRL
# [7] = target: T5, C-X-C chemokine receptor type 1 (Homo sapiens, UniProt P25024); note: in other assays of this panel Not Active means under 50% inhibition at 10 µM
# T5 sequence (P25024 whole entry): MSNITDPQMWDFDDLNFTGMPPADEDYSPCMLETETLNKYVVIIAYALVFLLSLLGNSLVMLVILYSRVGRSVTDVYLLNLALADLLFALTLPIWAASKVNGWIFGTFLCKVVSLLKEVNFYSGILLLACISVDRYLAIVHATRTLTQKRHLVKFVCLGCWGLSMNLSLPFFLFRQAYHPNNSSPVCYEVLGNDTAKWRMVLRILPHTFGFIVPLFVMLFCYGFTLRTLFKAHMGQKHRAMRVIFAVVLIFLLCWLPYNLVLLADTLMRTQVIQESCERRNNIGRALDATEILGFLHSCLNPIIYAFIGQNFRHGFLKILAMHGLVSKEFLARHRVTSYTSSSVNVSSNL
smiles,measurement,setting,value
C#C[C@]1(O)CC[C@H]2[C@@H]3CCc4cc(OC)ccc4[C@H]3CC[C@@]21C [MESTRANOL],IC50,[1],Not Active
same,IC50,[2],Not Active
same,IC50,[3],Not Active
same,Ki,[3],Not Active
same,IC50,Neutrophil elastase,Not Active
same,IC50,[4],Not Active
same,IC50,[5],Not Active
same,IC50,[6],Not Active
same,IC50,[7],Not Active
COc1cc2c(c3oc(=O)c4c(c13)CCC4=O)[C@@H]1C=CO[C@@H]1O2 [AFLATOXIN],IC50,[1],Not Active
same,Ki,[1],Not Active
same,IC50,[2],Not Active
same,Ki,[2],Not Active
same,IC50,[3],Not Active
same,Ki,[3],Not Active
same,IC50,Neutrophil elastase,Not Active
same,Ki,Neutrophil elastase,Not Active
same,IC50,[4],Not Active
same,Ki,[4],Not Active
same,IC50,[5],Not Active
same,Ki,[5],Not Active
same,IC50,[6],Not Active
same,Ki,[6],Not Active
same,IC50,[7],Not Active
same,Ki,[7],Not Active
CC1(C)O[C@@H]2C[C@H]3[C@@H]4C[C@H](F)C5=CC(=O)CC[C@]5(C)[C@H]4[C@@H](O)C[C@]3(C)[C@]2(C(=O)CO)O1 [FLURANDRENOLIDE],IC50,[1],Not Active
same,IC50,[2],Not Active
same,IC50,[3],Not Active
same,Ki,[3],Not Active
same,IC50,Neutrophil elastase,Not Active
same,IC50,[4],Not Active
same,IC50,[5],Not Active
same,IC50,[6],Not Active
same,IC50,[7],Not Active
CC1(C)O[C@@H]2C[C@H]3[C@@H]4C[C@H](F)C5=CC(=O)C=C[C@]5(C)[C@@]4(F)[C@@H](O)C[C@]3(C)[C@]2(C(=O)CO)O1 [FLUOCINOLONE ACETONIDE],IC50,[1],Not Active
same,IC50,[2],Not Active
same,IC50,[3],Not Active
same,Ki,[3],Not Active
same,IC50,Neutrophil elastase,Not Active
same,IC50,[4],Not Active
same,IC50,[5],Not Active
same,IC50,[6],Not Active
same,IC50,[7],Not Active
CC(C(=O)O)c1cccc(C(=O)c2ccccc2)c1 (stereo not given) [KETOPROFEN],IC50,[1],Not Active
same,IC50,[2],Not Active
same,IC50,[3],Not Active
same,Ki,[3],Not Active
same,IC50,Neutrophil elastase,Not Active
same,IC50,[4],Not Active
same,IC50,[5],Not Active
same,IC50,[6],Not Active
same,IC50,[7],Not Active
NC(=O)NO [HYDROXYUREA],IC50,[1],Not Active
same,IC50,[2],Not Active
same,IC50,[3],Not Active
same,Ki,[3],Not Active
same,IC50,Neutrophil elastase,Not Active
same,IC50,[4],Not Active
same,IC50,[5],Not Active
same,IC50,[6],Not Active
same,IC50,[7],Not Active
O=c1ccc2ccccc2o1 [COUMARIN],IC50,[1],Not Active
same,IC50,[2],Not Active
same,IC50,[3],Not Active
same,Ki,[3],Not Active
same,IC50,Neutrophil elastase,Not Active
same,IC50,[4],Not Active
same,IC50,[5],Not Active
same,IC50,[6],Not Active
same,IC50,[7],Not Active
CN1C(=O)COc2c(C(=O)NC3CN4CCC3CC4)cc(Cl)cc21 (stereo not given) [AZASETRON],IC50,[1],Not Active
same,IC50,[2],Not Active
same,IC50,[3],Not Active
same,Ki,[3],Not Active
same,IC50,Neutrophil elastase,Not Active
same,IC50,[4],Not Active
same,IC50,[5],Not Active
same,IC50,[6],Not Active
same,IC50,[7],Not Active
C[C@H]1C[C@H]2[C@@H]3CCC4=CC(=O)C=C[C@]4(C)[C@@]3(Cl)[C@@H](O)C[C@]2(C)[C@@]1(O)C(=O)CO [BECLOMETHASONE],IC50,[1],Not Active
same,IC50,[2],Not Active
same,IC50,[3],Not Active
same,Ki,[3],Not Active
same,IC50,Neutrophil elastase,Not Active
same,IC50,[4],Not Active
same,IC50,[5],Not Active
same,IC50,[6],Not Active
same,IC50,[7],Not Active
Cc1cc(=O)n(-c2ccccc2)n1C [ANTIPYRINE],IC50,[1],Not Active
same,IC50,[2],Not Active
same,IC50,[3],Not Active
same,Ki,[3],Not Active
same,IC50,Neutrophil elastase,Not Active
same,IC50,[4],Not Active
same,IC50,[5],Not Active
same,IC50,[6],Not Active
same,IC50,[7],Not Active
COc1cccc2c1C(=O)c1c(O)c3c(c(O)c1C2=O)C[C@@](O)(C(=O)CO)C[C@@H]3O[C@H]1C[C@H](N)[C@@H](O)[C@H](C)O1 [EPIRUBICIN],IC50,[1],Not Active
same,IC50,[2],Not Active
same,IC50,[3],Not Active
same,Ki,[3],Not Active
same,IC50,Neutrophil elastase,Not Active
same,IC50,[4],Not Active
same,IC50,[5],Not Active
same,IC50,[6],Not Active
same,IC50,[7],Not Active
C[C@](O)(CS(=O)(=O)c1ccc(F)cc1)C(=O)Nc1ccc(C#N)c(C(F)(F)F)c1 [(R)-BICALUTAMIDE],IC50,[1],Not Active
same,IC50,[2],Not Active
same,IC50,[3],Not Active
same,Ki,[3],Not Active
same,IC50,Neutrophil elastase,Not Active
same,IC50,[4],Not Active
same,IC50,[5],Not Active
same,IC50,[6],Not Active
same,IC50,[7],Not Active
COc1ccc2c(c1)[C@]13CCCC[C@@H]1[C@H](C2)N(C)CC3 [DEXTROMETHORPHAN],IC50,[1],Not Active
same,IC50,[2],Not Active
same,IC50,[3],Not Active
same,Ki,[3],Not Active
same,IC50,Neutrophil elastase,Not Active
same,IC50,[4],Not Active
same,IC50,[5],Not Active
same,IC50,[6],Not Active
same,IC50,[7],Not Active
COP(=O)(OC)OC=C(Cl)Cl [DICHLORVOS],IC50,[1],Not Active
same,IC50,[2],Not Active
same,IC50,[3],Not Active
same,Ki,[3],Not Active
same,IC50,Neutrophil elastase,Not Active
same,IC50,[4],Not Active
same,IC50,[5],Not Active
same,IC50,[6],Not Active
same,IC50,[7],Not Active
CCN[C@@H]1C[C@H](N)[C@@H](O[C@H]2OC(CN)=CC[C@H]2N)[C@H](O)[C@H]1O[C@H]1OC[C@](C)(O)[C@H](NC)[C@H]1O [NETILMICIN],IC50,[1],Not Active
same,IC50,[2],Not Active
same,IC50,[3],Not Active
same,Ki,[3],Not Active
same,IC50,Neutrophil elastase,Not Active
same,IC50,[4],Not Active
same,IC50,[5],Not Active
same,IC50,[6],Not Active
same,IC50,[7],Not Active
CN(C)/N=N/c1[nH]cnc1C(N)=O [DACARBAZINE],IC50,[1],Not Active
same,IC50,[2]; read-out: IC50,556 nM
same,IC50,[3],Not Active
same,Ki,[3],Not Active
same,IC50,Neutrophil elastase,Not Active
same,IC50,[4],Not Active
same,IC50,[5],Not Active
same,IC50,[6],Not Active
same,IC50,[7],Not Active
O=NN(CCCl)C(=O)NCCCl [CARMUSTINE],IC50,[1],Not Active
same,IC50,[2],Not Active
same,IC50,[3],Not Active
same,Ki,[3],Not Active
same,IC50,Neutrophil elastase,Not Active
same,IC50,[4],Not Active
same,IC50,[5],Not Active
same,IC50,[6],Not Active
same,IC50,[7],Not Active
